In ChEMBL document CHEMBL3588828, “A Selective, Cell-Permeable Nonphosphorylated Bicyclic Peptidyl Inhibitor against Peptidyl-Prolyl Isomerase Pin1” (J Med Chem, 2015) one finds Kd and Activity data, which are given here for 16 compounds.

The term Kd denotes the constant that tells how readily two partners part at equilibrium.

Bounds are passed on as bounds.

Assay [1] addresses Peptidyl-prolyl cis-trans isomerase NIMA-interacting 1 (Homo sapiens, UniProt Q13526, S16A/Y23A). The assay can be described thus: Binding affinity to N-terminal MBP fused and Texas-red-labeled full-length human Pin1 S16A/Y23A mutant expressed in Escherichia coli assessed as increase in fluorescence anisotropy by spectrofluorimetry. To be noted: read-out: Kd.
For assay [2], the system named is Peptidyl-prolyl cis-trans isomerase NIMA-interacting 1 (Homo sapiens), Q13526 [S16A,Y23A]. The assay can be described thus: Binding affinity to N-terminal MBP fused and Texas-red-labeled full-length human Pin1 S16A/Y23A mutant expressed in Escherichia coli assessed as increase in fluorescence anisotropy at 5 uM by spectrofluorimetry.

Consider `C[C@@H]1NC(=O)[C@H](CCCNC(=N)N)NC(=O)[C@H](Cc2ccc3ccccc3c2)NC(=O)[C@H]2CCCCN2C(=O)[C@@H](CC(=O)O)NC(=O)CN(C)C(=O)[C@@H]2CCCN2C(=O)c2cc3cc(c2)C(=O)NC[C@@H](C(=O)N[C@@H](CCCCN)C(=O)O)NC(=O)[C@H](CCCNC(=N)N)NC(=O)[C@H](CCCNC(=N)N)NC(=O)[C@H](CCCNC(=N)N)NC(=O)[C@H](CCCNC(=N)N)NC(=O)[C@H](Cc2ccc4ccccc4c2)NC(=O)[C@H](Cc2ccccc2)NC(=O)[C@H](CNC3=O)NC(=O)CCNC1=O`, for which the dissociation constant (Kd) in assay [1] is 2.08 µM.

Regarding `C[C@@H]1NC(=O)[C@H](CCCNC(=N)N)NC(=O)[C@H](Cc2ccc3ccccc3c2)NC(=O)[C@H]2CCCCN2C(=O)[C@@H]([C@H](C)O)NC(=O)[C@H](Cc2ccc(F)cc2)NC(=O)[C@@H](Cc2ccccc2)NC(=O)c2cc3cc(c2)C(=O)NC[C@H](NC(=O)[C@@H](Cc2ccccc2)NC1=O)C(=O)N[C@H](CCCNC(=N)N)C(=O)N[C@@H](CCCNC(=N)N)C(=O)N[C@H](CCCNC(=N)N)C(=O)N[C@@H](CCCNC(=N)N)C(=O)N[C@@H](Cc1ccc2ccccc2c1)C(=O)N[C@@H](Cc1ccccc1)C(=O)N[C@H](C(=O)N[C@@H](CCCCN)C(=O)O)CNC3=O`, the Kd in assay [1] was found to be 3.1 µM.

For the compound `C[C@@H]1NC(=O)[C@H](CCCNC(=N)N)NC(=O)[C@H](Cc2ccc3ccccc3c2)NC(=O)[C@H]2CCCCN2C(=O)[C@@H](CC(=O)O)NC(=O)CN(C)C(=O)[C@@H]2CCCN2C(=O)c2cc3cc(c2)C(=O)NC[C@@H](C(=O)N[C@@H](CCCCN)C(=O)O)NC(=O)[C@H](CCCNC(=N)N)NC(=O)[C@H](CCCNC(=N)N)NC(=O)[C@H](CCCNC(=N)N)NC(=O)[C@H](CCCNC(=N)N)NC(=O)[C@H](Cc2ccc4ccccc4c2)NC(=O)[C@H](Cc2ccccc2)NC(=O)[C@H](CNC3=O)NC1=O`, in assay [1], the Kd stood at 2.59 µM.

Regarding `CN1CC(=O)N[C@H](CC(=O)O)C(=O)N2CCCC[C@@H]2C(=O)N[C@@H](Cc2ccc3ccccc3c2)C(=O)N[C@@H](CCCNC(=N)N)C(=O)NCCC(=O)NCCC(=O)N[C@H]2CNC(=O)c3cc(cc(c3)C(=O)N3CCC[C@H]3C1=O)C(=O)NC[C@@H](C(=O)N[C@@H](CCCCN)C(=O)O)NC(=O)[C@H](CCCNC(=N)N)NC(=O)[C@H](CCCNC(=N)N)NC(=O)[C@H](CCCNC(=N)N)NC(=O)[C@H](CCCNC(=N)N)NC(=O)[C@H](Cc1ccc3ccccc3c1)NC(=O)[C@H](Cc1ccccc1)NC2=O`, the Kd in assay [1] came out at 4.83 µM.

In the case of `CC[C@H](C)[C@@H]1NC(=O)[C@H](Cc2ccccc2)N(C)C(=O)c2cc3cc(c2)C(=O)NC[C@H](NC(=O)[C@@H](C)NC(=O)[C@H](C)NC(=O)[C@H](CCCNC(=N)N)NC(=O)[C@H](Cc2ccc4ccccc4c2)NC(=O)[C@H]2CCCCN2C(=O)[C@@H](CCC(=O)O)NC1=O)C(=O)N[C@@H](Cc1ccccc1)C(=O)N[C@@H](Cc1ccc2ccccc2c1)C(=O)N[C@@H](CCCNC(=N)N)C(=O)N[C@@H](CCCNC(=N)N)C(=O)N[C@@H](CCCNC(=N)N)C(=O)N[C@@H](CCCNC(=N)N)C(=O)N[C@H](C(=O)N[C@@H](CCCCN)C(=O)O)CNC3=O`, the Activity in assay [2] was more than 50%. Further, the Kd in assay [1] stood at 1.25 µM.

As for `C[C@H]1NC(=O)[C@H](CCCNC(=N)N)NC(=O)[C@H](CCCNC(=N)N)NC(=O)[C@H](Cc2ccc3ccccc3c2)NC(=O)[C@H]2CCCCN2C(=O)[C@@H](CC(=O)O)NC(=O)CN(C)C(=O)[C@@H]2CCCN2C(=O)c2cc3cc(c2)C(=O)NC[C@H](NC1=O)C(=O)N[C@@H](Cc1ccccc1)C(=O)N[C@@H](Cc1ccc2ccccc2c1)C(=O)N[C@@H](CCCNC(=N)N)C(=O)N[C@@H](CCCNC(=N)N)C(=O)N[C@@H](CCCNC(=N)N)C(=O)N[C@@H](CCCNC(=N)N)C(=O)N[C@H](C(=O)N[C@@H](CCCCN)C(=O)O)CNC3=O`, the Kd in assay [1] was found to be 0.72 µM.

On to `C[C@@H]1NC(=O)[C@H](CCCNC(=N)N)NC(=O)[C@H](Cc2ccc3ccccc3c2)NC(=O)[C@H]2CCCCN2C(=O)[C@@H](CCC(=O)O)NC(=O)[C@H](Cc2cnc[nH]2)NC(=O)[C@H](c2ccccc2)NC(=O)c2cc3cc(c2)C(=O)NC[C@H](NC(=O)[C@@H](C)NC1=O)C(=O)N[C@@H](Cc1ccccc1)C(=O)N[C@@H](Cc1ccc2ccccc2c1)C(=O)N[C@@H](CCCNC(=N)N)C(=O)N[C@@H](CCCNC(=N)N)C(=O)N[C@@H](CCCNC(=N)N)C(=O)N[C@@H](CCCNC(=N)N)C(=O)N[C@H](C(=O)N[C@@H](CCCCN)C(=O)O)CNC3=O`, for which the Activity in assay [2] was more than 50%. Besides, in assay [1], the Kd was determined as 1.47 µM.

Consider `C[C@@H]1NC(=O)[C@H](CCCNC(=N)N)NC(=O)[C@H](Cc2ccc3ccccc3c2)NC(=O)[C@H]2CCCCN2C(=O)[C@@H]([C@H](C)O)NC(=O)[C@H](c2ccccc2)NC(=O)[C@H](Cc2cnc[nH]2)NC(=O)c2cc3cc(c2)C(=O)NC[C@H](NC(=O)[C@@H](C)NC1=O)C(=O)N[C@@H](Cc1ccccc1)C(=O)N[C@@H](Cc1ccc2ccccc2c1)C(=O)N[C@@H](CCCNC(=N)N)C(=O)N[C@@H](CCCNC(=N)N)C(=O)N[C@@H](CCCNC(=N)N)C(=O)N[C@@H](CCCNC(=N)N)C(=O)N[C@H](C(=O)N[C@@H](CCCCN)C(=O)O)CNC3=O`, for which the Activity in assay [2] is more than 50%. Moreover, in assay [1], the Kd turned out to be 1.4 µM.

For the compound `C[C@H]1NC(=O)[C@H](Cc2ccc(O)cc2)NC(=O)[C@H](CCCNC(=N)N)NC(=O)[C@H](Cc2ccc3ccccc3c2)NC(=O)[C@H]2CCCCN2C(=O)[C@@H](CC(=O)O)NC(=O)CN(C)C(=O)[C@@H]2CCCN2C(=O)c2cc3cc(c2)C(=O)NC[C@H](NC1=O)C(=O)N[C@@H](Cc1ccccc1)C(=O)N[C@@H](Cc1ccc2ccccc2c1)C(=O)N[C@@H](CCCNC(=N)N)C(=O)N[C@@H](CCCNC(=N)N)C(=O)N[C@@H](CCCNC(=N)N)C(=O)N[C@@H](CCCNC(=N)N)C(=O)N[C@H](C(=O)N[C@@H](CCCCN)C(=O)O)CNC3=O`, the Kd in assay [1] turned out to be 2.17 µM.

Regarding `C[C@@H]1NC(=O)[C@H](CCCNC(=N)N)NC(=O)[C@H](Cc2ccc3ccccc3c2)NC(=O)[C@H]2CCCCN2C(=O)[C@@H](CC(=O)O)NC(=O)CN(C)C(=O)[C@@H]2CCCN2C(=O)c2cc3cc(c2)C(=O)NC[C@H](NC(=O)[C@@H](C)NC(=O)[C@@H](C)NC1=O)C(=O)N[C@@H](Cc1ccccc1)C(=O)N[C@@H](Cc1ccc2ccccc2c1)C(=O)N[C@@H](CCCNC(=N)N)C(=O)N[C@@H](CCCNC(=N)N)C(=O)N[C@@H](CCCNC(=N)N)C(=O)N[C@@H](CCCNC(=N)N)C(=O)N[C@H](C(=O)N[C@@H](CCCCN)C(=O)O)CNC3=O`, the Kd in assay [1] is 2.49 µM.

With `C[C@@H]1NC(=O)CCNC(=O)[C@H](CCCNC(=N)N)NC(=O)[C@H](Cc2ccc3ccccc3c2)NC(=O)[C@H]2CCCCN2C(=O)[C@@H](CC(=O)O)NC(=O)CN(C)C(=O)[C@@H]2CCCN2C(=O)c2cc3cc(c2)C(=O)NC[C@@H](C(=O)N[C@@H](CCCCN)C(=O)O)NC(=O)[C@H](CCCNC(=N)N)NC(=O)[C@H](CCCNC(=N)N)NC(=O)[C@H](CCCNC(=N)N)NC(=O)[C@H](CCCNC(=N)N)NC(=O)[C@H](Cc2ccc4ccccc4c2)NC(=O)[C@H](Cc2ccccc2)NC(=O)[C@H](CNC3=O)NC1=O`, in assay [1], the Kd worked out at 1.75 µM.

In the case of `CC(C)[C@@H]1NC(=O)[C@H](CCCNC(=N)N)NC(=O)[C@H](Cc2ccc3ccccc3c2)NC(=O)[C@H]2CCCCN2C(=O)[C@@H](CC(=O)O)NC(=O)CN(C)C(=O)[C@@H]2CCCN2C(=O)c2cc3cc(c2)C(=O)NC[C@H](NC(=O)[C@@H](C)NC1=O)C(=O)N[C@@H](Cc1ccccc1)C(=O)N[C@@H](Cc1ccc2ccccc2c1)C(=O)N[C@@H](CCCNC(=N)N)C(=O)N[C@@H](CCCNC(=N)N)C(=O)N[C@@H](CCCNC(=N)N)C(=O)N[C@@H](CCCNC(=N)N)C(=O)N[C@H](C(=O)N[C@@H](CCCCN)C(=O)O)CNC3=O`, in assay [1], the Kd was 1.75 µM.

Turning to `C[C@@H]1NC(=O)[C@H](CCCNC(=N)N)NC(=O)[C@H](Cc2ccc3ccccc3c2)NC(=O)[C@H]2CCCCN2C(=O)[C@@H]([C@H](C)O)NC(=O)CNC(=O)[C@H](Cc2ccccc2)N(C)C(=O)c2cc3cc(c2)C(=O)NC[C@H](NC(=O)[C@@H](C)NC1=O)C(=O)N[C@@H](Cc1ccccc1)C(=O)N[C@@H](Cc1ccc2ccccc2c1)C(=O)N[C@@H](CCCNC(=N)N)C(=O)N[C@@H](CCCNC(=N)N)C(=O)N[C@@H](CCCNC(=N)N)C(=O)N[C@@H](CCCNC(=N)N)C(=O)N[C@H](C(=O)N[C@@H](CCCCN)C(=O)O)CNC3=O`, the Activity in assay [2] is more than 50%. The Kd in assay [1] was found to be 1.08 µM.

Take `C[C@H]1NC(=O)[C@H](CC(=O)O)NC(=O)[C@H](CCCNC(=N)N)NC(=O)[C@H](Cc2ccc3ccccc3c2)NC(=O)[C@H]2CCCCN2C(=O)[C@@H](CC(=O)O)NC(=O)CN(C)C(=O)[C@@H]2CCCN2C(=O)c2cc3cc(c2)C(=O)NC[C@H](NC1=O)C(=O)N[C@@H](Cc1ccccc1)C(=O)N[C@@H](Cc1ccc2ccccc2c1)C(=O)N[C@@H](CCCNC(=N)N)C(=O)N[C@@H](CCCNC(=N)N)C(=O)N[C@@H](CCCNC(=N)N)C(=O)N[C@@H](CCCNC(=N)N)C(=O)N[C@H](C(=O)N[C@@H](CCCCN)C(=O)O)CNC3=O`: in assay [1], the Kd was found to be 3.19 µM.

`C[C@@H]1NC(=O)[C@H](CCCNC(=N)N)NC(=O)[C@H](Cc2ccc3ccccc3c2)NC(=O)[C@H]2CCCCN2C(=O)[C@@H]([C@H](C)O)NC(=O)[C@H](Cc2ccc(F)cc2)NC(=O)[C@@H](Cc2ccccc2)NC(=O)c2cc3cc(c2)C(=O)NC[C@@H](C(=O)N[C@@H](CCCCN)C(=O)O)NC(=O)[C@H](CCCNC(=N)N)NC(=O)[C@H](CCCNC(=N)N)NC(=O)[C@H](CCCNC(=N)N)NC(=O)[C@H](CCCNC(=N)N)NC(=O)[C@H](Cc2ccc4ccccc4c2)NC(=O)[C@H](Cc2ccccc2)NC(=O)[C@H](CNC3=O)NC1=O`: the dissociation constant (Kd) in assay [1] was 0.9 µM.

Consider `C[C@@H]1NC(=O)[C@H](CCCNC(=N)N)NC(=O)[C@H](Cc2ccc3ccccc3c2)NC(=O)[C@H]2CCCCN2C(=O)[C@@H](CC(=O)O)NC(=O)CN(C)C(=O)[C@@H]2CCCN2C(=O)c2cc3cc(c2)C(=O)NC[C@H](NC(=O)[C@@H](C)NC1=O)C(=O)N[C@@H](Cc1ccccc1)C(=O)N[C@@H](Cc1ccc2ccccc2c1)C(=O)N[C@@H](CCCNC(=N)N)C(=O)N[C@@H](CCCNC(=N)N)C(=O)N[C@@H](CCCNC(=N)N)C(=O)N[C@@H](CCCNC(=N)N)C(=O)N[C@H](C(=O)N[C@@H](CCCCN)C(=O)O)CNC3=O` (stereo in doubt; 10), for which the Kd in assay [1] was determined as 3.42 µM.
